Reference: ChEMBL document CHEMBL4052783, “Effects of novel triple-stage antimalarial ionic liquids on lipid membrane models” (Bioorg Med Chem Lett, 2017)

Tests used:
[1] = tested on: Lipid bilayer; assay: Binding affinity to DPPC membrane assessed as main transition temperature at 1:10 compound/DPPC molar ratio by differential scanning calorimetric method (reference value: 41.5 degreeC)
[2] = tested on: Lipid bilayer; assay: Binding affinity to DPPC membrane assessed as change in enthalpy for main transition temperature at 1:10 compound/DPPC molar ratio by differential scanning calorimetric method (reference value: 7.22 kJ/mol)
[3] = tested on: Lipid bilayer; assay: Binding affinity to DPPG membrane assessed as main transition temperature at 1:10 compound/DPPG molar ratio by differential scanning calorimetric method (reference value: 40.3 degreeC)
[4] = tested on: Lipid bilayer; assay: Binding affinity to DPPG membrane assessed as pre-transition temperature at 1:10 compound/DPPG molar ratio by differential scanning calorimetric method (reference value: 34.5 degreeC)
[5] = tested on: Lipid bilayer; assay: Binding affinity to DPPG membrane assessed as change in enthalpy for main transition temperature at 1:10 compound/DPPG molar ratio by differential scanning calorimetric method (reference value: 8.7 KJ/mol)
[6] = tested on: Lipid bilayer; assay: Binding affinity to DPPG membrane assessed as change in enthalpy for pre-transition temperature at 1:10 compound/DPPG molar ratio by differential scanning calorimetric method (reference value: 0.74 KJ/mol)

Tm [1] [°C] | deltaH [2] [kcal/mol] | Tm [3] [°C] | Tm [4] [°C] | deltaH [5] [kcal/mol] | deltaH [6] [kcal/mol] | SMILES
40.1 | 1.89 | 39 | 32.4 | 2.22 | 0.103 | COc1cc(NC(C)CCCNC(=O)/C=C/c2ccc(C(C)C)cc2)c2ncccc2c1 (stereo not given)
40.1 | 2.05 | 39 | 32.7 | 2.46 | 0.143 | COc1cc(NC(C)CCCNC(=O)/C=C/c2ccc(Cl)cc2)c2ncccc2c1 (stereo not given)
40.7 | 2.29 | 38.1 | – | 2.23 | – | COc1cc(NC(C)CCCN)c2ncccc2c1.O=C(O)/C=C/c1ccc(Cl)cc1 (stereo not given)
40.2 | 2.22 | 38.3 | – | 2.35 | – | CC(C)c1ccc(/C=C/C(=O)O)cc1.COc1cc(NC(C)CCCN)c2ncccc2c1 (stereo not given)
